Reference: the NIST ThermoML archive (doi:10.1016/j.tca.2011.07.006)
Numbers after ± are expanded uncertainties.

Experiments:
[1] = Molar enthalpy of transition or fusion; conditions: Crystal; DSC
[2] = Crystal; DTA

Row | Molar enthalpy of transition or fusion [1] [kcal/mol] | Normal melting temperature [2] [°C] | SMILES
1 | 3.3 ± 0.167 | 6.5 ± 0.5 | CCn1cc[n+](C)c1.[Cl-].[Cl][Al]([Cl])[Cl] [1-ethyl-3-methyl-1H-imidazolium tetrachloroaluminate]
2 | 3.61 ± 0.311 | 97.0 ± 0.5 | CCn1cc[n+](C)c1.[Cl-] [1-ethyl-3-methylimidazolium chloride]
